Five compounds from patent US9936701B2, “Herbicidal compounds” (Syngenta Participations AG, priority 2013, dated 2018) can be followed below.

Assay [1] deals with a variety of test species. As to the kind of experiment: Pre-emergence herbicidal activity (glasshouse, sprayed one day after sowing, evaluated after 13 days). The arrangement: key: 5=total damage to plant; 0=no damage to plant. In kind it is in vivo. The settings on record: application pre-emergence, rate 1000 g/Ha, scale 0-5. The procedure: Seeds of a variety of test species were sown in standard soil in pots. After cultivation for one day (pre-emergence) under controlled conditions in a glasshouse (at 24/16° C., day/night; 14 hours light; 65% humidity), the plants were sprayed with an aqueous spray solution derived from the formulation of the technical active ingredient in acetone/water (50:50) solution containing 0.5% Tween 20 (polyoxyethelyene sorbitan monolaurate, CAS RN 9005-64-5). The test plants were then grown in a glasshouse under controlled conditions (at 24/16° C., day/night; 14 hours light; 65% humidity) and watered twice daily. After 13 days, the test was evaluated (5=total damage to plant; 0=no damage to plant).

The test system of assay [2] is a variety of test species. As to the kind of experiment: Post-emergence herbicidal activity (glasshouse, sprayed after 8 days cultivation, evaluated after 13 days). It is filed as in vivo. On the set-up: key: 5=total damage to plant; 0=no damage to plant. The following applies: rate 1000 g/Ha, scale 0-5. The procedure:
Seeds of a variety of test species were sown in standard soil in pots. After 8 days cultivation (post-emergence) under controlled conditions in a glasshouse (at 24/16° C., day/night; 14 hours light; 65% humidity), the plants were sprayed with an aqueous spray solution derived from the formulation of the technical active ingredient in acetone/water (50:50) solution containing 0.5% Tween 20 (polyoxyethelyene sorbitan monolaurate, CAS RN 9005-64-5). The test plants were then grown in a glasshouse under controlled conditions (at 24/16° C., day/night; 14 hours light; 65% humidity) and watered twice daily. After 13 days, the test was evaluated (5=total damage to plant; 0=no damage to plant).

SMILES strings stand for the structures.

Consider `CC1=C(I)C(=O)N(c2cc(C(C)(C)C)on2)[C@H]1O` [A17], for which, in assay [1], the “Pre-emergence herbicidal damage score, ABUTH” value was found to be 3; the “Pre-emergence herbicidal damage score, ALOMY” value is on record as 2; the “Pre-emergence herbicidal damage score, AMARE” value came to 5; the “Pre-emergence herbicidal damage score, ECHCG” value is reported as 5. In assay [1], the “Pre-emergence herbicidal damage score, SETFA” value stood at 3 and the “Pre-emergence herbicidal damage score, ZEAMX” value was 2. For the same compound, in assay [2], the “ABUTH (Abutilon theophrasti) damage score, application post-emergence” value (shortened to “ABUTH … application post-emergence”) was 5; the “ALOMY (Alopecurus myosuroides) damage score, application post-emergence” value (from here on “ALOMY … application post-emergence”) is recorded as 5; the “AMARE (Amaranthus retroflexus) damage score, application post-emergence” value (“AMARE … application post-emergence” for short) came out at 5; the “ECHCG (Echinochloa crus-galli) damage score, application post-emergence” value (“ECHCG … application post-emergence” for short) was found to be 5. In assay [2], the “SETFA (Setaria faberi) damage score, application post-emergence” value (“SETFA (Setaria faberi) damage score” for short) worked out at 5 and the “ZEAMX (Zea mays) damage score, application post-emergence” value (from here on “ZEAMX (Zea mays) damage score”) is listed as 4.

As to `CC(C)C1=C(Cl)C(=O)N(c2cc(C(C)(C)C)on2)C1O` (stereo not drawn) [A18], in assay [1], the “Pre-emergence herbicidal damage score, ABUTH” value worked out at 4; the “Pre-emergence herbicidal damage score, ALOMY” value worked out at 4; the “Pre-emergence herbicidal damage score, AMARE” value is on record as 1; the “Pre-emergence herbicidal damage score, ECHCG” value amounted to 2. In assay [1], the “Pre-emergence herbicidal damage score, SETFA” value was found to be 3 and the “Pre-emergence herbicidal damage score, ZEAMX” value was found to be 1. In addition, in assay [2], the “ABUTH … application post-emergence” value stood at 5; the “ALOMY … application post-emergence” value is on record as 5; the “AMARE … application post-emergence” value was found to be 4; the “ECHCG … application post-emergence” value stood at 5. Moreover, in assay [2], the “SETFA (Setaria faberi) damage score” value stood at 5 and the “ZEAMX (Zea mays) damage score” value is reported as 3.

With `CCCC1=C(Cl)C(=O)N(c2cc(C(C)(C)C)on2)C1O` (stereo not drawn) [A27], in assay [1], the “Pre-emergence herbicidal damage score, ABUTH” value stood at 5; the “Pre-emergence herbicidal damage score, ALOMY” value came out at 4; the “Pre-emergence herbicidal damage score, AMARE” value is on record as 5; the “Pre-emergence herbicidal damage score, ECHCG” value was 5. For the same compound, in assay [1], the “Pre-emergence herbicidal damage score, SETFA” value was 4 and the “Pre-emergence herbicidal damage score, ZEAMX” value turned out to be 4. Besides, in assay [2], the “ABUTH … application post-emergence” value is recorded as 5; the “ALOMY … application post-emergence” value is 5; the “AMARE … application post-emergence” value is 5; the “ECHCG … application post-emergence” value is listed as 5. In addition, in assay [2], the “SETFA (Setaria faberi) damage score” value was determined as 5 and the “ZEAMX (Zea mays) damage score” value is recorded as 4.

As to `CCOc1cc(N2C(=O)C(Cl)=C(C)C2O)no1` (stereo not drawn) [A32], in assay [1], the “Pre-emergence herbicidal damage score, ABUTH” value was 4; the “Pre-emergence herbicidal damage score, ALOMY” value was found to be 2; the “Pre-emergence herbicidal damage score, AMARE” value is on record as 1; the “Pre-emergence herbicidal damage score, ECHCG” value is on record as 3. In assay [1], the “Pre-emergence herbicidal damage score, SETFA” value is 1 and the “Pre-emergence herbicidal damage score, ZEAMX” value amounted to 1. Moreover, in assay [2], the “ABUTH … application post-emergence” value came out at 5; the “ALOMY … application post-emergence” value was found to be 2; the “AMARE … application post-emergence” value is recorded as 2; the “ECHCG … application post-emergence” value worked out at 5. Further, in assay [2], the “SETFA (Setaria faberi) damage score” value is on record as 2 and the “ZEAMX (Zea mays) damage score” value was 2.

As for `CCC(C)(CC#N)c1cc(N2C(=O)C(Cl)=C(C)C2O)no1` (stereo not drawn) [A59], in assay [1], the “Pre-emergence herbicidal damage score, ABUTH” value is given as 5; the “Pre-emergence herbicidal damage score, ALOMY” value is on record as 5; the “Pre-emergence herbicidal damage score, AMARE” value is recorded as 5; the “Pre-emergence herbicidal damage score, ECHCG” value stood at 5. For the same compound, in assay [1], the “Pre-emergence herbicidal damage score, SETFA” value was determined as 5 and the “Pre-emergence herbicidal damage score, ZEAMX” value turned out to be 5. In assay [2], the “ABUTH … application post-emergence” value is reported as 5; the “ALOMY … application post-emergence” value was 5; the “AMARE … application post-emergence” value stood at 5; the “ECHCG … application post-emergence” value is given as 5. Further, in assay [2], the “SETFA (Setaria faberi) damage score” value is reported as 5 and the “ZEAMX (Zea mays) damage score” value is listed as 5.
